Consider 69 compounds from ChEMBL document CHEMBL3507680, “University of Dundee, Gates Library screen for HepG2 cell viability”.

SMILES strings stand for the structures.

This data set in a line: Human HepG2 cell viability assay in 384 well format. It counts as toxicity, cell-based. Set-up: dose 125 nL, time 70.5 hour; cytotoxicity at 70.5 h: concentration not given beside the values. The note with it: HepG2 cells, read-out: Inhibition.
With `CC1CCCN1Cc1cccc(C(=O)Nc2ccc3[nH]c(=O)oc3c2)c1` (centres undefined), the cytotoxicity at 70.5 h is 30.6%.

In the case of `c1cncc(C(Cn2cnnc2)N2CCOCC2)c1` (centres undefined), the cytotoxicity at 70.5 h worked out at 2.14%.

For `Cc1ccc([C@@H]2CN(S(=O)(=O)N3CCC(C)CC3)C[C@H]2N(C)C)cc1`, the cytotoxicity at 70.5 h was -12.1%.

Turning to `COc1nc2c(cc1C(=O)NC(C)Cc1cc(C)n[nH]1)CCC2` (centres undefined), the cytotoxicity at 70.5 h is -12%.

As to `CN(CCN1CCCCCC1)c1nccc(N2CCC(O)C2)n1` (centres undefined), the cytotoxicity at 70.5 h is -6.64%.

Consider `COCc1noc(CN2CC(=O)N(C)c3ccccc3C2=O)n1`, for which the cytotoxicity at 70.5 h worked out at 0.208%.

As to `Cc1ccccc1OCC1CCCN(C(=O)CNC(=O)N(C)C)C1` (centres undefined), the cytotoxicity at 70.5 h turned out to be 16.8%.

As for `N#Cc1c2n(c3c(=O)[nH]cnc13)CCCCC2`, the cytotoxicity at 70.5 h was found to be 2.85%.

As to `CCc1nc(N)nc(NCCC(=O)NC2CCCCC2)c1C`, the cytotoxicity at 70.5 h was -3.68%.

On to `Cc1cc(C(=O)N2CCC3(CC2)CN(CCN(C)C)C(=O)O3)nc(C)n1`, for which the cytotoxicity at 70.5 h was -6.56%.

Consider `COCc1ccc(C(=O)N2CC[C@@](O)(COC)C(C)(C)C2)o1`, for which the cytotoxicity at 70.5 h was -6.95%.

Turning to `CNCc1n[nH]c(=O)n1-c1cccc(Cl)c1Cl`, the cytotoxicity at 70.5 h was -8.26%.

`O=c1n(CCn2cccc2)nc(C2CCNCC2)n1Cc1ccccc1`: the cytotoxicity at 70.5 h was -3.92%.

Take `Cc1ccccc1C(CNC(=O)CSc1nnc(N)s1)N(C)C` (centres undefined): the cytotoxicity at 70.5 h is -6.4%.

Regarding `CCC(C(=O)NC1(CN2CCOCC2)CCCC1)n1cccn1` (centres undefined), the cytotoxicity at 70.5 h was -2.56%.

On to `CCc1ncc(C(=O)N(C)C2Cc3ccccc3C2)cn1`, for which the cytotoxicity at 70.5 h was 2.28%.

`Cc1cccc(C(C(=O)NC(C)(C)CN2CCCC2)N(C)C)c1` (centres undefined): the cytotoxicity at 70.5 h is -8.64%.

On to `CC(=O)NCc1cc2n(n1)CCN(Cc1cccc(CCN)c1)C2`, for which the cytotoxicity at 70.5 h is -2.57%.

For the compound `O=C(NCCn1ccnc1-c1cc2n(n1)CCNC2)c1ccc(F)cc1`, the cytotoxicity at 70.5 h was 2.16%.

Take `O=C(Cn1nc2ccccc2n1)N1CCCn2cncc2C1`: the cytotoxicity at 70.5 h was -8.74%.

In the case of `CC1(C)CN(S(=O)(=O)N2CCCC2)CC1c1ccccc1` (centres undefined), the cytotoxicity at 70.5 h was -6.08%.

With `CCc1nc(NCCc2nc(C)c(C)s2)c2cnn(C)c2n1`, the cytotoxicity at 70.5 h was -7.53%.

For the compound `CCc1cccc(NC(=O)CCC(=O)N(C)Cc2nc(C)c[nH]2)c1`, the cytotoxicity at 70.5 h is 2.2%.

With `Cn1c(CN2CCCCC2)nnc1C1CCCN(c2ccncc2F)C1` (centres undefined), the cytotoxicity at 70.5 h was -5.33%.

On to `CCN1CCCC1Cn1ccc2c(OC)c(OC)ccc2c1=O` (centres undefined), for which the cytotoxicity at 70.5 h was -6.22%.

As to `O=S1(=O)C[C@@H]2[C@H](C1)N(Cc1cc(F)cc(F)c1)CCN2CCO`, the cytotoxicity at 70.5 h is -1.64%.

As to `CCC(C)N(Cc1cccnc1)C(=O)c1ccc(NS(=O)(=O)CC)cc1` (centres undefined), the cytotoxicity at 70.5 h was -1.92%.

As to `Cc1cccnc1CN(C)C(C(=O)O)c1ccc(C(C)(C)C#N)cc1` (centres undefined), the cytotoxicity at 70.5 h was -0.799%.

`Cc1cc(NC(=O)c2ccc(CN3CC[C@H](O)C3)cc2)ccc1F`: the cytotoxicity at 70.5 h was -13.5%.

In the case of `CC(C)Cc1cc(C(=O)NCC2CCN(c3ccccc3F)C2)on1` (centres undefined), the cytotoxicity at 70.5 h is -13.6%.

In the case of `CCCC(=O)Nc1cc(C(=O)NC(C)Cc2ccncc2)ccc1C` (centres undefined), the cytotoxicity at 70.5 h was -5.95%.

On to `CC(C)CN1CC(c2nc(-c3ccsc3)c[nH]2)CC1=O` (centres undefined), for which the cytotoxicity at 70.5 h is -2.45%.

Take `Cc1ccccc1C(C(=O)N1CCN(C(=O)c2ccc[nH]2)CC1)N(C)C` (centres undefined): the cytotoxicity at 70.5 h is -15.2%.

With `Cc1cc(C)n(C2CCN(c3ncnc4c3CCC4)C2)n1` (centres undefined), the cytotoxicity at 70.5 h was 12.6%.

On to `CCc1nccn1CCC(=O)N1C[C@H]2CC[C@@H]1CN(C(=O)N(C)C)C2`, for which the cytotoxicity at 70.5 h is -3.14%.

On to `Cc1ccc(-c2nc(CNC(C)CCO)[nH]c2-c2ccccn2)cc1` (centres undefined), for which the cytotoxicity at 70.5 h was 1.74%.

Take `Cn1nnnc1SCCNC(=O)C1CCN(C(=O)C2CCCC2)CC1`: the cytotoxicity at 70.5 h is -5.48%.

Take `O=C(Cc1c[nH]c(=O)[nH]c1=O)N1CCCCC1CCc1ccccc1` (centres undefined): the cytotoxicity at 70.5 h was 3.58%.

`COc1ccc(F)cc1C(=O)N1C[C@H]2CC[C@@H]1CN(c1ncccn1)C2`: the cytotoxicity at 70.5 h is -9.41%.

Regarding `CCc1nc(C)c(C(=O)N(C)Cc2cnn(-c3cccc(OC)c3)c2)s1`, the cytotoxicity at 70.5 h is -3.66%.

Regarding `CNC(=O)C(C)CNC(=O)c1coc(COc2cccc(F)c2F)n1` (centres undefined), the cytotoxicity at 70.5 h is -14.8%.

Consider `CCCc1nc(N2CC[C@@H](c3ccc4c(c3)OCO4)[C@H](O)C2)no1`, for which the cytotoxicity at 70.5 h is -9.08%.

In the case of `Cc1ncoc1C(=O)N1CCOC(CCCC(C)C)C1` (centres undefined), the cytotoxicity at 70.5 h is -8.44%.

Consider `COC(=O)[C@H]1C[C@@H](O)CCN1S(=O)(=O)c1ccc(F)cc1F`, for which the cytotoxicity at 70.5 h was found to be 21.8%.

For `CCC(NS(=O)(=O)c1ccc(C(=O)NC2CC2)cc1)c1ccnn1C` (centres undefined), the cytotoxicity at 70.5 h was -7.49%.

On to `CCc1oc(C(=O)N[C@@H]2c3ccccc3C[C@@H]2O)cc1CN1CCCC1`, for which the cytotoxicity at 70.5 h was -6.15%.

`c1cncc(Cc2nnc3n2CCN(CC2CCCNC2)CC3)c1` (centres undefined): the cytotoxicity at 70.5 h was -14%.

For the compound `CCN1CCCC1CNC(=O)CCSc1ccc2c(c1)OCCO2` (centres undefined), the cytotoxicity at 70.5 h was 2.47%.

With `Cc1nc(-c2cccnc2)ncc1C(=O)N1CCCCC(N)C1` (centres undefined), the cytotoxicity at 70.5 h was -23.9%.

As for `CC(C)N1CCC(CN2CCn3nc(CNC(=O)N(C)C)cc3C2)CC1`, the cytotoxicity at 70.5 h was 4.16%.

As to `O=C(NCCCN1CCOCC1)C1CCCN(Cc2ccco2)C1` (centres undefined), the cytotoxicity at 70.5 h was -1.31%.

Turning to `Cc1cc(CNc2nccc(N)n2)c2[nH]c(C)c(C)c2c1`, the cytotoxicity at 70.5 h stood at 1.64%.

`c1cc(-c2ccn(CCN3CCCC3)n2)cc(-c2nccs2)c1`: the cytotoxicity at 70.5 h was -6.38%.

Regarding `O=C(C1CCC1)N1CCCn2nc(CNc3ncccn3)cc2C1`, the cytotoxicity at 70.5 h stood at 1.42%.

As for `Cc1nn(C)c2nc(N3CCCC3c3nccs3)sc12` (centres undefined), the cytotoxicity at 70.5 h is -12.1%.

For `CCN(CCn1cccn1)C(=O)CN1C(=O)OC[C@@H]1c1ccccc1`, the cytotoxicity at 70.5 h is -6.78%.

`O=C(NCc1cn2cccnc2n1)C1CC(=O)N(Cc2ccccn2)C1` (centres undefined): the cytotoxicity at 70.5 h is -6.73%.

`C[C@@H]1CN(S(=O)(=O)N2CCCCCC2)C[C@@]1(O)C1CCC1`: the cytotoxicity at 70.5 h is -8.97%.

In the case of `Cc1ccccc1OCC1CCCN(c2cc(N)nc(N)n2)C1` (centres undefined), the cytotoxicity at 70.5 h was -8.34%.

In the case of `CCc1c(C(=O)N2CC[C@H](N3CCOCC3)[C@H](CCCO)C2)csc1C`, the cytotoxicity at 70.5 h is -20.4%.

For the compound `CCN(Cc1noc(CC(C)C)n1)Cc1cccc(F)c1O`, the cytotoxicity at 70.5 h is 12.8%.

In the case of `CC(C)c1nnsc1CNC(=O)C1CCN(C(=O)C2CCCC2)CC1`, the cytotoxicity at 70.5 h stood at 12%.

In the case of `CCN1CC2(CCC1=O)CCN(Cc1cscn1)CC2`, the cytotoxicity at 70.5 h was -10.8%.

For the compound `CCOC(=O)N1CCN(c2nc(CCN)nc3sc(C)c(C)c23)CC1`, the cytotoxicity at 70.5 h was 1.12%.

Take `COc1ccc(C)cc1C(=O)N1C[C@@H](CN(C)CCO)[C@@H](CO)C1`: the cytotoxicity at 70.5 h stood at 0.0463%.

`NC(=O)[C@@H]1CCCN1C(=O)c1csc(-c2ccc(C(F)(F)F)cc2)n1`: the cytotoxicity at 70.5 h was found to be 20.6%.

Regarding `CN(Cc1cc(-c2ccncc2)no1)C(=O)[C@@H]1CSCN1C`, the cytotoxicity at 70.5 h is -13.1%.

As to `Cc1cc(N2CCN(C3CCSCC3)CC2)n2nc(C)c(C)c2n1`, the cytotoxicity at 70.5 h is -5.2%.

In the case of `CC(=O)N1CCc2c(nc(N(C)C)nc2NCCCn2ccnc2)C1`, the cytotoxicity at 70.5 h is -8.48%.
